Where “and” joins values, the source holds several entries; their conditions need not be identical. Equal values may be shown once. Entries after “also recorded” stand apart in the source; their conditions may differ.
Experiments:
[1] = system: cholesterol 27-OHase mRNA in THP-1 cells; experiment: 27-OHase mRNA by real-time PCR (QRT-PCR) in THP-1 monocytes/macrophages; conditions: for effect on 27-OHase message: THP-1 monocytes/macrophages; for increase in 27-OHase message: THP-1 cells; for 27-OHase mRNA, % of control: THP-1 monocytes, MTX 5 μM, 18 hr, untreated = 100%, n=3
Method: THP-1 cells: When THP-1 cells had reached 10^6 cells/ml, media was aspirated and cells were rinsed twice with Dulbecco's Phosphate Buffered Saline (DPBS) without calcium and magnesium. The monocytes were then incubated for 24-48 hours in six well plates, (37° C., 5% CO2) under the following conditions: a) RPMI control; b) RPMI containing 5 mM MTX; c) RPMI containing NS-398 (50 μM); d) RPMI containing NS-398 (50 μM) and MTX (increasing doses of 0.1 μM, 0.5 μM and 5 μM); e) RPMI containing IFN-γ (500 U/ml); f) RPMI containing IFN-γ (500 U/ml) and 5 μM MTX.
TUP-1 macrophages were exposed to the following conditions: a) RPMI control; b) RPMI containing ZM-241385 (10 μM); c) RPMI containing MTX (5 μM); d) RPMI containing IFN-γ (500 U/ml); e) RPMI containing IFN-γ (500 U/ml) and 5 μM MTX; f) RPMI containing ZM-241385 (10 μM) and MTX (5 μM); g) RPMI containing IFN-γ (500 U/ml), ZM-241385 (10 μM) and MTX (5 μM); h) RPMI containing NS-398 (50 μM), ZM-241385 (10 μM) and MTX (5 μM).
Other experimental conditions of TUP-1 and PBMC included the following parameters and conditions: when THP-1 monocytes had reached 10^6 cells/ml, media was aspirated and cells were rinsed twice with Dulbecco's Phosphate Buffered Saline (DPBS) without calcium and magnesium.
RNA isolation and quantitation: RNA was isolated using 1 ml Trizol reagent per 10^6 cells and dissolved in nuclease-free water. The quantity of total RNA from each condition was measured by absorption at 260 and 280 wavelengths using quartz cuvettes by ultraviolet spectrophotometry (Hitachi U2010 spectrophotometer).
RT-PCR analysis of 27-OHase: 27-OHase and ABCA1 mRNA were quantitated by real-time PCR. cDNA was copied from 5 μg of total RNA using M-MLV reverse transcriptase primed with oligo dT. Equal amounts of cDNA were taken from each RT reaction mixture for PCR amplification using cholesterol 27-OHase-specific primers or ABCA1 specific primers as well as glyceraldehyde-3-phosphate dehydrogenase (GAPDH) control primers. The cholesterol 27-OHase-specific primers span a 311 base-pair sequence encompassing nucleotides 491-802 of the human cholesterol 27-OHase cDNA (24). ABCA1 primers yield a 234 BP amplified fragment. Real-time PCR analysis was performed using the SYBR Green PCR Reagents Kit (Applied Biosystems) with a Stratagene MX3005P QPCR System.
PCR was performed using techniques as follows. Each PCR reaction contained 2.5 μl of the 10 × fluorescent green buffer, 3 μl of 25 mM MgCl2, 2 μl dNTP mix (2500 μM dCTP, 2500 μM dGTP, 2500 μM dATP, and 5000 μM dUTP), 0.15 μl polymerase (5 U/μl; AmpliTaq Gold; Applied Biosystems), 0.25 μl uracil-N-glycosylase (1 U/μlUNG; AmpErase; Applied Biosystems), 0.5 μl of the forward and reverse primers (10 μM concentration), 4 μl cDNA, and water to a final volume of 25 μl. The thermal cycling parameters were as follows: 5 minutes at 95° C. to activate the polymerase (AmpliTaq Gold; Applied Biosystems), followed by 45 cycles of 30 seconds at 95° C. and 45 seconds at 58° C. then 45 seconds at 72° C. Each reaction was done in triplicate.
The amounts of PCR products were estimated, using software provided by the manufacturer (Stratagene). After completion of PCR cycles, the reactions were heat denatured over a 35° C. temperature gradient from 60° C. to 95° C. To correct for differences in cDNA load among samples, the target PCRs were normalized to a reference PCR involving the endogenous housekeeping genes glyceraldehyde-3-phosphate dehydrogenase (GAPDH) and β-actin. Nontemplate controls were included for each primer pair to check for significant levels of any contaminants. Fluorescence emission spectra were monitored and analyzed.

[2] = system: ABCA1 mRNA in THP-1 cells; experiment: ABCA1 mRNA by real-time PCR in THP-1 cells; format: cell-based, human; conditions: for effect on ABCA1 message: THP-1 monocytes/macrophages
[3] = system: 27-OHase mRNA in Balb/C murine macrophages; experiment: 27-OHase mRNA in Balb/C murine macrophages; format: cell-based; conditions: 10^−5M, 3 hours, 37° C., n=3 per group
Excerpt: A number of different highly receptor-specific agonists and antagonists of adenosine receptors have been developed that either mimic or block the effects of adenosine. […] Based on the upregulation of 27-OHase in murine cells upon exposure to CGS-21680, the same effect was established in human monocytoid cells. In THP-1 cells, ABCA1 mRNA increased in concert with 27-OHase.

[4] = rats, IV dose 0.3 mg/kg; cited from earlier work
[5] = system: cholesterol 27-OHase protein in THP-1 cells; experiment: 27-OHase protein by Western immunoblot in THP-1 monocytes; format: cell-based, human; conditions: NS-398 50 μM
Method: Western Blots: Total cell lysates were prepared for Western immunoblotting using RIPA lysis buffer (98% PBS, 1% Igepal CA-630, 0.5% sodium deoxycholate, 0.1% sodium dodecyl sulfate [SDS]). 100 μl of RIPA lysis buffer and 10 μl of protease inhibitor cocktail (Sigma) were added to the cell pellet from each condition and incubated on ice for 35 minutes with vortexing every 5 min. Supernatants were collected after centrifuging at 10,000 g at 4° C. for 10 minutes using an Eppendorf 5415C centrifuge. The quantity of protein in each supernatant was measured by absorption at 560 nm using a Hitachi U2010 spectrophotometer.
Total cell lysate was used for Western blots. Protein samples ([…]) were boiled for 5 minutes, loaded onto a 10% polyacrylamide gel, electrophoresed for 1.5 hr at 100V then transferred to a nitrocellulose membrane in a semi-dry transblot apparatus for 1 hour at 100V. […] The five washes in TTBS were repeated, then the immunoreactive protein was detected using ECL western blotting detection reagent (Amersham Biosciences, Cat No RPN2106) and film development in SRX-101A (Konica Minolta).
As a control, on the same transferred membrane, beta-actin was detected using mouse anti-beta-actin (diluted in 1:1000, from abCam, product Code: ab6276) and ECL sheep anti-mouse-IgG Horseradish peroxidase-linked species-specific whole antibody (diluted in 1:2000, from Amersham Biosciences, product Code NA931) and all other similar steps as above.
Total cell lysate was isolated for Western immunoblotting using RIPA lysis buffer (98% PBS, 1% Igepal CA-630, 0.5% sodium deoxycholate, 0.1% SDS). […] The quantity of protein in each supernatant was measured by absorption at 560 nm using a Hitachi U2010 spectrophotometer.
Cultured TUP-1 monocytic cells were untreated or exposed to NS-398 (50 μM, 18 hr) then untreated or exposed to increasing doses of MTX for 24 hr. Total cell protein was isolated and 27-OHase detected with specific rabbit polyclonal anti-human 27-OHase antibody. […]

[6] = system: ABCA1 protein in THP-1 cells; experiment: ABCA1 protein by Western blot in THP-1 cells; format: cell-based, human; conditions: 50 μM
Method: ABCA1 Detection: For ABCA1 detection, macrophage cell lysates were electrophoresed for 1.5 hr at 100V (10% polyacrylamide gel), then transferred to a nitrocellulose membrane. The membrane was blocked for 4 hours at 4° C. in blocking solution then incubated overnight at 4° C. in a 1:200 dilution of rabbit anti-ABCA1antibody (Santa Cruz Biotechnology). The following day, the membrane was washed 5 times in TTBS for 5 mins per wash then incubated at room temperature in a 1:5000 dilution of ECL donkey anti-rabbit IgG Horseradish peroxidase-linked species-specific whole antibody. Development proceeded as described above for the 27-OHase antibody.
(§1) Media was aspirated and cells were rinsed 3 times with Dulbecco's Phosphate Buffered Saline (PBS) without Ca++ and Mg++. […] THP-1 macrophages were cholesterol-loaded with 50 μg/ml acetylated LDL and incubated an additional 48 h prior to oil red O staining.
Western Blots: Total cell lysate protein samples (10 μg/lane) were boiled for 5 min, loaded onto a 7.5% polyacrylamide gel, electrophoresed for 1.5 hr at 100V then transferred to a nitrocellulose membrane in a semi-dry transblot apparatus for 1 hr at 100V. For ABCA1 detection, the primary antibody was a rabbit anti-human ABCA1 antibody (1:2000 dilution, Santa Cruz Biotechnology). […]

THP-1 macrophages = experiment: Foam cell formation in acetylated LDL-loaded THP-1 macrophages (oil red O); format: cell-based, human
Method: THP-1 human monocytes (1×10^6 cells/ml) in 12 well plates were treated with phorbol dibutyrate, 300 nM (Sigma) for 48 hr at 37° C. to facilitate differentiation into macrophages. The differentiated macrophages were washed three times with PBS, then incubated alone or in the presence of 10 μM NS-398 (37° C., 5% CO2, 18 hours). Cells were cholesterol-loaded with acetylated LDL (50 μg/ml) and further incubated in RPMI (37° C., 5% CO2) for 48 hours. Studies were performed in triplicate.
Immediately following incubation, media was aspirated and cells were fixed in the same 12 well plates used for incubation, with 4% paraformaldehyde in water, for 2-4 minutes. Cells were stained with 0.2% Oil-Red-O in methanol for 1-3 min. Cells were observed via light microscope (Axiovert 25-Zeiss) with 100× magnification and then photographed using a Kodak DC 290 Zoom Digital Camera. The number of foam cells formed in each condition were calculated manually and presented as percentage foam cell formation.
as §1
Following incubation, media was aspirated and cells were fixed with 4% paraformaldehyde in water, for 2-4 min. Cells were stained with 0.4% trypan blue for 1-3 min, washed in PBS, and then stained with 0.2% oil-Red-O in methanol for 1-3 min. Observation and photography of cells was performed respectively via light microscope (NIKON Eclipse TE300) with 40× magnification and SONY Progressive 3CCD color video camera. The number of foam cells formed in each condition were calculated manually and presented as percentage foam cell formation.

[7] = system: 27-OHase in peripheral blood monocytes; experiment: 27-OHase in healthy monocytes isolated from peripheral blood (PBMC); format: cell-based, human; conditions: MTX 5 μM, 18 h
Method: PBMC (peripheral blood mononuclear cell) isolation: Blood from healthy donors was collected in EDTA treated tubes, pooled and kept at 4° C. The pooled blood was adjusted to a density of 1.120 g/ml with the addition of OptiPrep Density Gradient Media (Sigma) according to the manufacturer's instructions. The blood was then overlaid with a 1.074 g/ml density solution composed of complete RPMI containing 10% FBS and OptiPrep media. A layer of complete RPMI containing 10% FBS was then overlaid on top to prevent monocytes from sticking to the plastic tube. The blood was centrifuged at 750 g for 30 minutes at 4° C. After centrifugation, the monocyte interphase was collected from between the 1.074 g/ml and RPMI layer. The collected cells were diluted with 2 volumes of complete RPMI and harvested by centrifugation. The pellet was re-suspended in complete RPMI. The monocytes were counted by hemocytometer and plated at a density of 2×10^6 cells/well in a 6-well plate.
PBMC: PBMC were incubated for 18 h in RPMI with 10% FBS with and without the addition of MTX at a concentration of 5 μM. Cells were collected and RNA isolated.

[8] = vs NS-398 alone, NS-398 50 μM, CGS-21680 10 μM, 18 hrs
[9] = acetylated LDL-treated THP-1 macrophages, MTX series, control 39.3±5.0%, n=3
[10] = THP-1 macrophages, acetylated LDL

In the case of `COC(=O)N1CCC(CC#Cc2nc(N)c3ncn([C@@H]4O[C@H](C(=O)NC5CC5)[C@@H](O)[C@H]4O)c3n2)CC1` [ATL313], the “effect on 27-OHase message” value [1] is reported as “increases 27-OHase message” and the “effect on ABCA1 message” value [2] is reported as “increases 27-OHase as shown in FIG. 3b and ABCA1 mRNA and protein”.

For `CCNC(=O)[C@H]1O[C@@H](n2cnc3c(N)nc(NCCc4ccc(CCC(=O)O)cc4)nc32)[C@H](O)[C@@H]1O` [CGS-21680, 2-(4-(2-carboxyethyl)phenethylamino)-5′-N-ethylcarboxamidoadenosine], the “increase in 27-OHase message” value [1] was no more than 1.8 fold, the “increase in 27-OHase mRNA on addition of CGS-21680 to NS-398-treated THP-1 cells” value [1, 8] was 184% and the “increase in 27-OHase mRNA expression” value [3] was 47±6.2%. The terminal half-life [4] was 19 ± 4 min, the “effect on 27-OHase protein” value [5] was “this decrease is reversed by the addition of the adenosine A2A agonist CGS-21680” and the “increase in ABCA1 mRNA on addition of CGS-21680 to NS-398-treated THP-1 cells” value [2, 8] was 141%.

For `Cc1ccc(-c2cc(C(F)(F)F)nn2-c2ccc(S(N)(=O)=O)cc2)cc1` [Celecoxib, celecoxib], the “decrease in ABCA1 protein expression vs. control” value [6] was 25.6%±1.3 and the foam cells (THP-1 macrophages; 50 μM, acetylated LDL loading, control 39.1%±5.4) was 95.0%±0.7.

With `Nc1nc(OCCc2ccc(Cl)cc2)nc2c1ncn2[C@@H]1O[C@H](CO)[C@@H](O)[C@H]1O` [MRE-0094] the “increase in 27-OHase message” value [1] was 2 fold and the “increase in ABCA1 mRNA expression” value ([2]; THP-1 cells) was 1.8 fold.

For `CN(Cc1cnc2nc(N)nc(N)c2n1)c1ccc(C(=O)N[C@@H](CCC(=O)O)C(=O)O)cc1` [MTX, methotrexate], the “effect on 27-OHase message” value [1] was “completely blocked NS-398-induced downregulation of 27-OHase message”, the “27-OHase mRNA, % of control” value ([1]; NS-398 50 μM, CGS-21680 10 μM) was 113.9±6.4% and the “effect on 27-OHase protein” value [5] was “corrected with increasing concentrations of MTX”. For the same compound, the “effect on 27-OHase in peripheral blood monocytes” value [7] was “increases 27-OHase” and the “effect on ABCA1 message” value [2] was “effective in blocking COX-2 inhibitor-mediated downregulation of ABCA1 message”.

In the case of `CS(=O)(=O)Nc1ccc([N+](=O)[O-])cc1OC1CCCCC1` [NS-398], the “effect on 27-OHase message” value [1] is reported as “dramatically reduced cholesterol 27-OHase message”, the “27-OHase mRNA, % of control” value ([1]; NS-398 50 μM, CGS-21680 10 μM) is reported as 71.1±4.3% and 58.9±2.3% and 62.4±2.2% and the foam cell transformation (THP-1 macrophages; THP-1 macrophages, NS-398 (10 μM, 18 hours), acetylated LDL, control 20.1±3.4%) is reported as 42.7±6.6%. For the same compound, the foam cells (THP-1 macrophages; [9]) was 72.7±4.9%, the “effect on 27-OHase protein” value [5] was 27-OHase protein expression decreased and the “ABCA1 mRNA, % of control” value ([2]; THP-1 cells, NS-398 50 μM, CGS-21680 10 μM, 18 hrs, untreated = 100%, n=3) was 71.1±3.9% and 60.49±4.42%.

In the case of `Nc1nc(NCCc2ccc(O)cc2)nc2nc(-c3ccco3)nn12` [ZM-241385], the “reversal by A2A antagonist of agonist-induced rise in 27-OHase (and ABCA1) message” value ([1]; THP-1, ZM-241385 with ATL313 or MRE-0094) is reported as “this is reversed by ZM-241385; also recorded: reversed the effect of MRE-0094 on both these messages”, the “effect on foam cell formation” value (THP-1 macrophages; [10]) is reported as “prevents MTX from decreasing NS-398-induced foam cell formation” and the “foam cells after preincubation with A2A antagonist prior to MTX treatment” value (THP-1 macrophages; acetylated LDL-treated THP-1 macrophages, ZM-241385 then MTX) is reported as 62.1±1.5%.

In the case of “IFN-γ: recombinant human IFN-γ, atherosclerosis-promoting cytokine (R&D Systems)”, the “effect on 27-OHase message” value [1] is reported as “decreasing 27-OHase and ABCA1 message and protein expression”, the “effect on foam cell formation” value (THP-1 macrophages; [10]) is reported as “formed foam cells more rapidly and in greater proportion than untreated control cells” and the foam cells (THP-1 macrophages; [9]) is reported as 71.0±5.0%.
